Biological target: T1, His6-PDK1 (aa 52-556) (Homo sapiens, UniProt O15530)
T1 construct: 15 μL His6-PDK1 (aa 52-556) 3.33 ng/well); host or cells: baculovirus-infected insect cells
T1 sequence (O15530 52-556): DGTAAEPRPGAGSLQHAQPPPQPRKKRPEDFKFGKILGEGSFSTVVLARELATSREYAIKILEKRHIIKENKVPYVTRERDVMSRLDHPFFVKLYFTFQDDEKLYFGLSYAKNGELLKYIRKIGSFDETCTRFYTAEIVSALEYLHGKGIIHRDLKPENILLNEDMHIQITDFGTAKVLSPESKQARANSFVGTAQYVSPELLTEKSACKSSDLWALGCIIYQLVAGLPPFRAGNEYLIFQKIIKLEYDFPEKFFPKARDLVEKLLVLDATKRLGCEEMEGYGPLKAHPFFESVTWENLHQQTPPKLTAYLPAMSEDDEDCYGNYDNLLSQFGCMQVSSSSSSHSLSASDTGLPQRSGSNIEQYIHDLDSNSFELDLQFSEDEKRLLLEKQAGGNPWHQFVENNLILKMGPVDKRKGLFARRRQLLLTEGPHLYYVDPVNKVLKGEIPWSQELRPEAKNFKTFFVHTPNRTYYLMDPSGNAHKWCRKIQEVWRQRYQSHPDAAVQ
Assay: PDK1 kinase assay III (with Tween 20)
Assay type: biochemical
Conditions: compound at 10 μM; PDK1 kinase assay III (values without asterisk); read-out: % CTL (residual activity of the enzyme relative to DMSO control)
Procedure: Purified enzyme may be obtained for example from the University of Dundee, Scotland.
Another PDK1 assay was developed which by comparison with PDK1 assay 1 additionally contains Tween 20:
The final concentration of Tween 20 is 0.005%.
The reaction is started by adding the ATP solution and the mixture is incubated for 90 min at ambient temperature; at the start of the reaction the dishes are shaken gently. The reaction is stopped by the addition of 50 μL/well of 500 mM phosphoric acid (H3PO4) and incubated for about 20 min at ambient temperature. […] The measured data are evaluated using Graphpad Prism software.
The % CTL values indicate the residual activity of the enzyme after the addition of the inhibitory compound in the solvent DMSO in relation to the enzyme activity in the solvent DMSO without the addition of a compound (control). The majority of the values were determined using the PDK1 kinase assay III described hereinbefore. The values marked with an asterisk (* or**) were determined using the PDK1 kinase assay II described hereinbefore (one asterisk→incubation for 24 h; two asterisks→incubation for 5 min)

Point of comparison: `Cn1cc(C(=O)NC/C=C/c2ccc3c(c2)NC(=O)/C3=C\c2cnc[nH]2)c(=O)n(Cc2ccc(F)c(F)c2)c1=O` [I-43], remaining activity at 10 µM 20.3%. Against it:
- O=C1Nc2cc(/C=C/CNC(=O)c3cc(Cl)nn(Cc4ccc(F)c(F)c4)c3=O)ccc2/C1=C/c1ccc[nH]1 [I-34, 6-chloro-2-(3,4-difluorobenzyl)-3-oxo-N-{(2E)-3-[(3Z)-2-oxo-3-(1H-pyrrol-2-ylmethylidene)-2,3-dihydro-1H-indol-6-yl]prop-2-en-1-yl}-2,3-dihydropyridazine-4-carboxamide] — higher, 21.4%
- Cc1nc(/C=C2\C(=O)Nc3cc(/C=C/CNC(=O)c4cncn(Cc5ccc(F)c(F)c5)c4=O)ccc32)c[nH]1 [I-35, 1-(3,4-difluorobenzyl)-N-[(2E)-3-{(3Z)-3-[(2-methyl-1H-imidazol-4-yl)methylidene]-2-oxo-2,3-dihydro-1H-indol-6-yl}prop-2-en-1-yl]-6-oxo-1,6-dihydropyrimidine-5-carboxamide] — lower, 10.7%
- O=C1Nc2cc(/C=C/CNC(=O)c3cncn(Cc4ccc(F)c(F)c4)c3=O)ccc2/C1=C/c1c[nH]c(-c2cccnc2)n1 [I-36, 1-(3,4-difluorobenzyl)-6-oxo-N-{(2E)-3-[(3Z)-2-oxo-3-{[2-(pyridin-3-yl)-1H-imidazol-4-yl]methylidene}-2,3-dihydro-1H-indol-6-yl]prop-2-en-1-yl}-1,6-dihydropyrimidine-5-carboxamide] — higher, 25.4%
- O=C1Nc2cc(/C=C/CNC(=O)c3cncn(Cc4ccc(F)c(F)c4)c3=O)ccc2/C1=C/c1ncc[nH]1 [I-37, 1-(3,4-difluorobenzyl)-N-{(2E)-3-[(3Z)-3-(1H-imidazol-2-ylmethylidene)-2-oxo-2,3-dihydro-1H-indol-6-yl]prop-2-en-1-yl}-6-oxo-1,6-dihydropyrimidine-5-carboxamide] — lower, 16.6%
- Cc1c[nH]c(/C=C2\C(=O)Nc3cc(/C=C/CNC(=O)c4cncn(Cc5ccc(F)c(F)c5)c4=O)ccc32)n1 [I-38, 1-(3,4-difluorobenzyl)-N-[(2E)-3-{(3Z)-3-[(4-methyl-1H-imidazol-2-yl)methylidene]-2-oxo-2,3-dihydro-1H-indol-6-yl}prop-2-en-1-yl]-6-oxo-1,6-dihydropyrimidine-5-carboxamide] — higher, 20.5%
- Cc1nc[nH]c1/C=C1\C(=O)Nc2cc(/C=C/CNC(=O)c3c(C)n(C)n(Cc4ccccc4)c3=O)ccc21 [I-39, 2-benzyl-1,5-dimethyl-N-[(2E)-3-{(3Z)-3-[(4-methyl-1H-imidazol-5-yl)methylidene]-2-oxo-2,3-dihydro-1H-indol-6-yl}prop-2-en-1-yl]-3-oxo-2,3-dihydro-1H-pyrazole-4-carboxamide] — lower, 18.6%
- Cc1c(C(=O)NC/C=C/c2ccc3c(c2)NC(=O)/C3=C\c2ncc[nH]2)c(=O)n(Cc2ccc(F)c(F)c2)n1C [I-41, 2-(3,4-difluorobenzyl)-N-{(2E)-3-[(3Z)-3-(1H-imidazol-2-ylmethylidene)-2-oxo-2,3-dihydro-1H-indol-6-yl]prop-2-en-1-yl}-1,5-dimethyl-3-oxo-2,3-dihydro-1H-pyrazole-4-carboxamide] — lower, 16.6%
- Cc1c[nH]c(/C=C2\C(=O)Nc3cc(/C=C/CNC(=O)c4c(C)n(C)n(Cc5ccc(F)c(F)c5)c4=O)ccc32)n1 [I-42, 2-(3,4-difluorobenzyl)-1,5-dimethyl-N-[(2E)-3-{(3Z)-3-[(4-methyl-1H-imidazol-2-yl)methylidene]-2-oxo-2,3-dihydro-1H-indol-6-yl}prop-2-en-1-yl]-3-oxo-2,3-dihydro-1H-pyrazole-4-carboxamide] — lower, 15.7%
- O=C1Nc2cc(C#CCNC(=O)c3cncn(Cc4ccc(F)c(F)c4)c3=O)ccc2/C1=C/c1cnc[nH]1 [I-44, 1-(3,4-difluorobenzyl)-N-{3-[(3Z)-3-(1H-imidazol-5-ylmethylidene)-2-oxo-2,3-dihydro-1H-indol-6-yl]prop-2-yn-1-yl}-6-oxo-1,6-dihydropyrimidine-5-carboxamide] — lower, 15.6%
- O=C1Nc2cc(/C=C/CNC(=O)c3cncn(Cc4ccc(F)c(F)c4)c3=O)cc(F)c2/C1=C/c1cnc[nH]1 [I-46, 1-(3,4-difluorobenzyl)-N-{(2E)-3-[(3Z)-4-fluoro-3-(1H-imidazol-5-ylmethylidene)-2-oxo-2,3-dihydro-1H-indol-6-yl]prop-2-en-1-yl}-6-oxo-1,6-dihydropyrimidine-5-carboxamide] — lower, 15.6%
- Cc1nc[nH]c1/C=C1\C(=O)Nc2cc(/C=C/CNC(=O)c3cncn(Cc4ccc(F)c(F)c4)c3=O)cc(F)c21 [I-47, 1-(3,4-difluorobenzyl)-N-[(2E)-3-{(3Z)-4-fluoro-3-[(4-methyl-1H-imidazol-5-yl)methylidene]-2-oxo-2,3-dihydro-1H-indol-6-yl}prop-2-en-1-yl]-6-oxo-1,6-dihydropyrimidine-5-carboxamide] — lower, 17.2%
- Cc1c[nH]c(/C=C2\C(=O)Nc3cc(/C=C/CNC(=O)c4cncn(Cc5ccc(F)c(F)c5)c4=O)cc(F)c32)n1 [I-48, 1-(3,4-difluorobenzyl)-N-[(2E)-3-{(3Z)-4-fluoro-3-[(4-methyl-1H-imidazol-2-yl)methylidene]-2-oxo-2,3-dihydro-1H-indol-6-yl}prop-2-en-1-yl]-6-oxo-1,6-dihydropyrimidine-5-carboxamide] — higher, 23.1%
- NCc1[nH]cnc1/C=C1\C(=O)Nc2cc(/C=C/CNC(=O)c3cncn(Cc4ccc(F)c(F)c4)c3=O)ccc21 [I-49, N-{(2E)-3-[(3Z)-3-{[5-(aminomethyl)-1H-imidazol-4-yl]methylidene}-2-oxo-2,3-dihydro-1H-indol-6-yl]prop-2-en-1-yl}-1-(3,4-difluorobenzyl)-6-oxo-1,6-dihydropyrimidine-5-carboxamide] — lower, 12.6%
- Cc1c(C(=O)NC/C=C/c2ccc3c(c2)NC(=O)/C3=C\c2nc[nH]c2CN)c(=O)n(Cc2ccc(F)c(F)c2)n1C [I-50, N-{(2E)-3-[(3Z)-3-{[5-(aminomethyl)-1H-imidazol-4-yl]methylidene}-2-oxo-2,3-dihydro-1H-indol-6-yl]prop-2-en-1-yl}-2-(3,4-difluorobenzyl)-1,5-dimethyl-3-oxo-2,3-di-hydro-1H-pyrazole-4-carboxamide] — lower, 16.6%
- Cc1c(C(=O)NCC#Cc2ccc3c(-c4ccc[nH]4)n[nH]c3c2)c(=O)n(Cc2ccc(F)c(F)c2)n1C [II-1, 2-(3,4-difluorobenzyl)-1,5-dimethyl-3-oxo-N-{3-[3-(1H-pyrrol-2-yl)-1H-indazol-6-yl]prop-2-yn-1-yl}-2,3-dihydro-1H-pyrazole-4-carboxamide] — lower, 13%
- O=C(NCC#Cc1ccc2cn[nH]c2c1)c1cncn(Cc2ccc(F)c(F)c2)c1=O [II-2, 1-(3,4-difluorobenzyl)-N-[3-(1H-indazol-6-yl)prop-2-yn-1-yl]-6-oxo-1,6-dihydropyrimidine-5-carboxamide] — lower, 12.5%
- Cc1c(C(=O)NCC#Cc2ccc3cn[nH]c3c2)c(=O)n(Cc2ccc(F)c(F)c2)n1C [II-3, 2-(3,4-difluorobenzyl)-N-[3-(1H-indazol-6-yl)prop-2-yn-1-yl]-1,5-dimethyl-3-oxo-2,3-dihydro-1H-pyrazole-4-carboxamide] — lower, 12.4%
- Cc1c(C(=O)NCC#Cc2ccc3c(-c4ccccc4)n[nH]c3c2)c(=O)n(Cc2ccc(F)c(F)c2)n1C [II-4, 2-(3,4-difluorobenzyl)-1,5-dimethyl-3-oxo-N-[3-(3-phenyl-1H-indazol-6-yl)prop-2-yn-1-yl]-2,3-dihydro-1H-pyrazole-4-carboxamide] — lower, 16.9%
- Cc1c(C(=O)NCC#Cc2ccc3c(-c4ccco4)n[nH]c3c2)c(=O)n(Cc2ccc(F)c(F)c2)n1C [II-5, 2-(3,4-difluorobenzyl)-N-{3-[3-(furan-2-yl)-1H-indazol-6-yl]prop-2-yn-1-yl}-1,5-dimethyl-3-oxo-2,3-dihydro-1H-pyrazole-4-carboxamide] — higher, 22.7%
- Cc1c(C(=O)NC/C=C\c2ccc3c(-c4ccco4)n[nH]c3c2)c(=O)n(Cc2ccc(F)c(F)c2)n1C [II-6, 2-(3,4-difluorobenzyl)-N-{(2Z)-3-[3-(furan-2-yl)-1H-indazol-6-yl]prop-2-en-1-yl}-1,5-dimethyl-3-oxo-2,3-dihydro-1H-pyrazole-4-carboxamide] — higher, 21.4%
- Cc1c(C(=O)NC/C=C\c2ccc3cn[nH]c3c2)c(=O)n(Cc2ccc(F)c(F)c2)n1C [II-7, 2-(3,4-difluorobenzyl)-N-[(2Z)-3-(1H-indazol-6-yl)prop-2-en-1-yl]-1,5-dimethyl-3-oxo-2,3-dihydro-1H-pyrazole-4-carboxamide] — higher, 27.4%

— patent US20110313156A1 (BOEHRINGER INGELHEIM INTERNATIONAL GMBH, priority 2008, published 2011)
